Patent publication US9833497B2, “Human originated EGF domain proteins and use of the same” (CHENGDU SOURCEBIO LIMITED-LIABILITY COMPANY, priority 2013, dated 2017)

Assays:
Type in all cases: cell-based
E. coli DH5α = experiment: Antibacterial activity: MIC and growth curve against E. coli DH5α in 96-well plate; conditions: minimal inhibitory concentration against E. coli DH5α; 96-well plate, 5×10^5 CFU/mL, 37° C., judged after 8 h
How it was run: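 MIC taken as lowest protein level with no bacterial growth, tracked by A600 every 30 min during 37 °C, 175 rpm culture. Two-fold protein series 50-12.5 μg/mL final, triplicate wells, against 5×10^5 CFU/mL of LB-washed mid-log cells.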

E. coli BL21 = experiment: MIC against Gram-negative bacteria: E. coli BL21; conditions: 5×10^5 CFU/mL
How it was run: (§1)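 Bacteria grown in LB at 37° C to McFarland 0.5, resuspended and seeded at 5×10^5 CFU/mL in 96-well plates. Purified human EGF-domain proteins two-fold serially diluted, triplicate wells; cultured at 37° C, shaking 175 rpm. MIC = lowest protein concentration with no growth.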

Pseudomonas aeruginosa = experiment: MIC against Gram-negative bacteria: Pseudomonas aeruginosa; conditions: 5×10^5 CFU/mL
How it was run: as §1

Klebsiella pneumonia = experiment: MIC against Gram-negative bacteria: Klebsiella pneumonia; conditions: 5×10^5 CFU/mL
How it was run: as §1

Enterobacter cloacae = experiment: MIC against Gram-negative bacteria: Enterobacter cloacae; conditions: 5×10^5 CFU/mL
How it was run: as §1

Aeromonas hydrophila = experiment: MIC against Gram-negative bacteria: Aeromonas hydrophila; conditions: 5×10^5 CFU/mL
How it was run: as §1

Citrobacter diversus = experiment: MIC against Gram-negative bacteria: Citrobacter diversus; conditions: 5×10^5 CFU/mL
How it was run: as §1

Moraxella catarrhalis = experiment: MIC against Gram-negative bacteria: Moraxella catarrhalis; conditions: 5×10^5 CFU/mL
How it was run: as §1

Proteus mirabilis = experiment: MIC against Gram-negative bacteria: Proteus mirabilis; conditions: 5×10^5 CFU/mL
How it was run: as §1

Proteus vulgaris = experiment: MIC against Gram-negative bacteria: Proteus vulgaris; conditions: 5×10^5 CFU/mL
How it was run: as §1

Serratia marcescens = experiment: MIC against Gram-negative bacteria: Serratia marcescens; conditions: 5×10^5 CFU/mL
How it was run: as §1

[1] = 10 h cultivation at 37° C., two-fold serial dilution
[2] = E. coli BL21, 10 h cultivation at 37° C.

Question: How did the MIC (E. coli DH5α) turn out when “PRT1190 (DLNYCGSHHPCTNGGTCINAEPDQYRCTCPDGYSGRNCE; listed as Homo sapiens)” was run?
Answer: 50 µg/mL

Question: What about the “MIC E. coli BL21” value (E. coli BL21; [1]) of the same substance?
Answer: 12.5 µg/mL

Question: What about the “MIC P. aeruginosa” value (Pseudomonas aeruginosa; [1]) of the same substance?
Answer: 25 µg/mL

Question: What about the “MIC K. pneumonia” value (Klebsiella pneumonia; [1]) of the same substance?
Answer: 12.5 µg/mL

Question: What about the “MIC E. cloacae” value (Enterobacter cloacae; [1]) of the same substance?
Answer: 50 µg/mL

Question: And the “MIC A. hydrophila” value (Aeromonas hydrophila; [1])?
Answer: 12.5 µg/mL

Question: What about the “MIC C. diversus” value (Citrobacter diversus; [1]) of the same substance?
Answer: 25 µg/mL

Question: What about the “MIC M. catarrhalis” value (Moraxella catarrhalis; [1]) of the same substance?
Answer: 50 µg/mL

Question: And the “MIC P. mirabilis” value (Proteus mirabilis; [1])?
Answer: 25 µg/mL

Question: And the “MIC P. vulgaris” value (Proteus vulgaris; [1])?
Answer: 12.5 µg/mL

Question: What about the “MIC S. marcescens” value (Serratia marcescens; [1]) of the same substance?
Answer: 50 µg/mL

Question: What does the source list for “PRT661 (QAEECGILNGCENGRCVRVREGYTCDCFEGFQLDAAHMACV; listed as Homo sapiens)”?
Answer: MIC (E. coli DH5α): 50 µg/mL; MIC E. coli BL21 (E. coli BL21; 96-well plate, 37° C., 10 h): 25 µg/mL; MIC P. aeruginosa (Pseudomonas aeruginosa; 96-well plate, 37° C., 10 h): 12.5 µg/mL; MIC K. pneumonia (Klebsiella pneumonia; 96-well plate, 37° C., 10 h): 25 µg/mL; MIC E. cloacae (Enterobacter cloacae; 96-well plate, 37° C., 10 h): 50 µg/mL; MIC A. hydrophila (Aeromonas hydrophila; 96-well plate, 37° C., 10 h): 25 µg/mL; MIC C. diversus (Citrobacter diversus; 96-well plate, 37° C., 10 h): 12.5 µg/mL; MIC M. catarrhalis (Moraxella catarrhalis; 96-well plate, 37° C., 10 h): 25 µg/mL; MIC P. mirabilis (Proteus mirabilis; 96-well plate, 37° C., 10 h): 50 µg/mL; MIC P. vulgaris (Proteus vulgaris; 96-well plate, 37° C., 10 h): 25 µg/mL; MIC S. marcescens (Serratia marcescens; 96-well plate, 37° C., 10 h): 25 µg/mL

Question: With “PRT563 (CVCNYLGTVQEHCNGSDCQCDKATGQCLCLPNVIGQNCDRCAPNTWQLASGTGCDP; listed as Homo sapiens)” as the substance, how does the MIC (E. coli DH5α) read?
Answer: 25 µg/mL

Question: And the “MIC against E. coli BL21” value (E. coli BL21; 96-well plate, 37° C., 10 h)?
Answer: 12.5 µg/mL

Question: And the “MIC against P. aeruginosa” value (Pseudomonas aeruginosa; 96-well plate, 37° C., 10 h)?
Answer: 25 µg/mL

Question: What about the “MIC against K. pneumonia” value (Klebsiella pneumonia; 96-well plate, 37° C., 10 h) of the same substance?
Answer: 50 µg/mL

Question: And the “MIC against E. cloacae” value (Enterobacter cloacae; 96-well plate, 37° C., 10 h)?
Answer: 25 µg/mL

Question: And the “MIC against A. hydrophila” value (Aeromonas hydrophila; 96-well plate, 37° C., 10 h)?
Answer: 12.5 µg/mL

Question: And the “MIC against C. diversus” value (Citrobacter diversus; 96-well plate, 37° C., 10 h)?
Answer: 25 µg/mL

Question: And the “MIC against M. catarrhalis” value (Moraxella catarrhalis; 96-well plate, 37° C., 10 h)?
Answer: 50 µg/mL

Question: And the “MIC against P. mirabilis” value (Proteus mirabilis; 96-well plate, 37° C., 10 h)?
Answer: 25 µg/mL

Question: What about the “MIC against P. vulgaris” value (Proteus vulgaris; 96-well plate, 37° C., 10 h) of the same substance?
Answer: 12.5 µg/mL

Question: And the “MIC against S. marcescens” value (Serratia marcescens; 96-well plate, 37° C., 10 h)?
Answer: 25 µg/mL

Question: With “PRT1069 (VTNPCDRKKCEWLCLLSPSGPVCTCPNGKRLDNGTCV; listed as Homo sapiens)” as the substance, how does the MIC (E. coli DH5α) read?
Answer: 12.5 µg/mL

Question: And the “MIC E. coli BL21” value (E. coli BL21; [1])?
Answer: 50 µg/mL

Question: And the “MIC P. aeruginosa” value (Pseudomonas aeruginosa; [1])?
Answer: 12.5 µg/mL

Question: And the “MIC K. pneumonia” value (Klebsiella pneumonia; [1])?
Answer: 25 µg/mL

Question: And the “MIC E. cloacae” value (Enterobacter cloacae; [1])?
Answer: 50 µg/mL

Question: And the “MIC A. hydrophila” value (Aeromonas hydrophila; [1])?
Answer: 12.5 µg/mL

Question: And the “MIC C. diversus” value (Citrobacter diversus; [1])?
Answer: 50 µg/mL

Question: And the “MIC M. catarrhalis” value (Moraxella catarrhalis; [1])?
Answer: 25 µg/mL

Question: And the “MIC P. mirabilis” value (Proteus mirabilis; [1])?
Answer: 12.5 µg/mL

Question: What about the “MIC P. vulgaris” value (Proteus vulgaris; [1]) of the same substance?
Answer: 25 µg/mL

Question: And the “MIC S. marcescens” value (Serratia marcescens; [1])?
Answer: 25 µg/mL

Question: With “PRT756 (KIDYCASSNHGCQHECVNTDDSYSCHCLKGFTLNPDKKTCR; listed as Homo sapiens)” as the substance, how does the MIC (E. coli DH5α) read?
Answer: 12.5 µg/mL

Question: And the “MIC (μg/mL) E. coli BL21” value (E. coli BL21; [2])?
Answer: 25 µg/mL

Question: What about the “MIC (μg/mL) P. aeruginosa” value (Pseudomonas aeruginosa; P. aeruginosa, 10 h cultivation at 37° C.) of the same substance?
Answer: 12.5 µg/mL

Question: And the “MIC (μg/mL) K. pneumonia” value (Klebsiella pneumonia; K. pneumonia, 10 h cultivation at 37° C.)?
Answer: 50 µg/mL

Question: What about the “MIC (μg/mL) E. cloacae” value (Enterobacter cloacae; E. cloacae, 10 h cultivation at 37° C.) of the same substance?
Answer: 12.5 µg/mL

Question: And the “MIC (μg/mL) A. hydrophila” value (Aeromonas hydrophila; A. hydrophila, 10 h cultivation at 37° C.)?
Answer: 50 µg/mL

Question: What about the “MIC (μg/mL) C. diversus” value (Citrobacter diversus; C. diversus, 10 h cultivation at 37° C.) of the same substance?
Answer: 12.5 µg/mL

Question: And the “MIC (μg/mL) M. catarrhalis” value (Moraxella catarrhalis; M. catarrhalis, 10 h cultivation at 37° C.)?
Answer: 50 µg/mL

Question: What about the “MIC (μg/mL) P. mirabilis” value (Proteus mirabilis; P. mirabilis, 10 h cultivation at 37° C.) of the same substance?
Answer: 12.5 µg/mL

Question: What about the “MIC (μg/mL) P. vulgaris” value (Proteus vulgaris; P. vulgaris, 10 h cultivation at 37° C.) of the same substance?
Answer: 50 µg/mL

Question: And the “MIC (μg/mL) S. marcescens” value (Serratia marcescens; S. marcescens, 10 h cultivation at 37° C.)?
Answer: 12.5 µg/mL

Question: “PRT1221 (DINECLQSPCKNGAICQNFPGSFNCVCKTGYTGKMCE; listed as Homo sapiens)” was tested. Which MIC (E. coli DH5α) did it give?
Answer: 25 µg/mL

Question: What about the “MIC against E. coli BL21” value (E. coli BL21; E. coli BL21, 96-well plate, 37° C., 10 h) of the same substance?
Answer: 12.5 µg/mL

Question: And the “MIC against P. aeruginosa” value (Pseudomonas aeruginosa; Pseudomonas aeruginosa, 96-well plate, 37° C., 10 h)?
Answer: 25 µg/mL

Question: What about the “MIC against K. pneumonia” value (Klebsiella pneumonia; Klebsiella pneumonia, 96-well plate, 37° C., 10 h) of the same substance?
Answer: 25 µg/mL

Question: And the “MIC against E. cloacae” value (Enterobacter cloacae; Enterobacter cloacae, 96-well plate, 37° C., 10 h)?
Answer: 50 µg/mL

Question: And the “MIC against A. hydrophila” value (Aeromonas hydrophila; Aeromonas hydrophila, 96-well plate, 37° C., 10 h)?
Answer: 25 µg/mL

Question: And the “MIC against C. diversus” value (Citrobacter diversus; Citrobacter diversus, 96-well plate, 37° C., 10 h)?
Answer: 12.5 µg/mL

Question: And the “MIC against M. catarrhalis” value (Moraxella catarrhalis; Moraxella catarrhalis, 96-well plate, 37° C., 10 h)?
Answer: 50 µg/mL

Question: What about the “MIC against P. mirabilis” value (Proteus mirabilis; Proteus mirabilis, 96-well plate, 37° C., 10 h) of the same substance?
Answer: 25 µg/mL

Question: And the “MIC against P. vulgaris” value (Proteus vulgaris; Proteus vulgaris, 96-well plate, 37° C., 10 h)?
Answer: 12.5 µg/mL

Question: And the “MIC against S. marcescens” value (Serratia marcescens; Serratia marcescens, 96-well plate, 37° C., 10 h)?
Answer: 50 µg/mL

Question: “PRT1446 (FLSPCVDDCGPYGQCKLLRTHNYLYAACECKAGWRGWGCT; listed as Homo sapiens)” was tested. Which MIC (E. coli DH5α) did it give?
Answer: 12.5 µg/mL

Question: What about the “MIC against E. coli BL21” value (E. coli BL21; [2]) of the same substance?
Answer: 12.5 µg/mL

Question: What about the “MIC against P. aeruginosa” value (Pseudomonas aeruginosa; Pseudomonas aeruginosa, 10 h cultivation at 37° C.) of the same substance?
Answer: 25 µg/mL

Question: And the “MIC against K. pneumonia” value (Klebsiella pneumonia; Klebsiella pneumonia, 10 h cultivation at 37° C.)?
Answer: 25 µg/mL

Question: What about the “MIC against E. cloacae” value (Enterobacter cloacae; Enterobacter cloacae, 10 h cultivation at 37° C.) of the same substance?
Answer: 12.5 µg/mL

Question: And the “MIC against A. hydrophila” value (Aeromonas hydrophila; Aeromonas hydrophila, 10 h cultivation at 37° C.)?
Answer: 25 µg/mL

Question: And the “MIC against C. diversus” value (Citrobacter diversus; Citrobacter diversus, 10 h cultivation at 37° C.)?
Answer: 12.5 µg/mL

Question: What about the “MIC against M. catarrhalis” value (Moraxella catarrhalis; Moraxella catarrhalis, 10 h cultivation at 37° C.) of the same substance?
Answer: 12.5 µg/mL

Question: And the “MIC against P. mirabilis” value (Proteus mirabilis; Proteus mirabilis, 10 h cultivation at 37° C.)?
Answer: 12.5 µg/mL

Question: What about the “MIC against P. vulgaris” value (Proteus vulgaris; Proteus vulgaris, 10 h cultivation at 37° C.) of the same substance?
Answer: 25 µg/mL

Question: What about the “MIC against S. marcescens” value (Serratia marcescens; Serratia marcescens, 10 h cultivation at 37° C.) of the same substance?
Answer: 12.5 µg/mL
